{"source": "patent US20070044168A1", "about": "“Transplantable tumor model” (Northwestern University, priority 2005, published 2007)", "system": "clonal CB1 zebrafish", "assay": "Tumor induction by continuous immersion in DEN solution", "format": "in vivo", "details": "100 ppm DEN immersion for 8 weeks", "protocol": "Tumor induction. Sixty-five 2.5-month-old fish from the clonal CB1 line were used for tumor induction by continuous immersion in N-nitrosodiethylamine (DEN) solution (100 ppm) during the 8 weeks. During DEN, exposure fish were maintained in 20-L acrylic tanks equipped with a mechanical filter and an automatic heater. The filters were cleaned twice weekly. The complete exchange of water containing the carcinogen was done every 2 weeks. The water temperature was maintained at 26±0.5° C. Following completion of DEN exposure the fish were transferred to a 20-L system tank and remained under observation for up to 9 months.\nThe grossly visible tumors began to emerge in fish 3 to 7 months after the beginning of exposure to DEN. Four spontaneous tumors diagnosed as acinar cell carcinomas of the pancreas were detected in 10.5- to 18-month-old female CB1 fish (See, e.g., FIG. 1G)."}
{"molecule": "CCN(CC)N=O", "note": "[DEN, N-nitrosodiethylamine]", "values": [{"measurement": "emergence of grossly visible tumors after the beginning of exposure", "setting": "CB1 fish", "value": "3 to 7", "unit": "months"}, {"measurement": "primary tumors localized in the abdominal area", "setting": "sixty-five 2.5-month-old CB1 fish, observed up to 9 months", "value": 35}]}
